# Measured values from patent publication US20230087118A1, “IMIDAZO[1,2-a][sequence] DERIVATIVES AND THEIR USE IN THE TREATMENT OF DISEASE” (priority 2019, published 2023).
# pIC50: −log10 of the molar value. Where a name gives a salt, the structure may show the parent alone.
# Experiments:
# IRAK4 [1] = molecular target: T1, IRAK4 (Homo sapiens, UniProt Q9NWZ3); assay: 2-hour 10 μM ATP Biochemical Assay (MesoScale Detection format; IRAK4 phosphorylation of biotin labeled IRAK1 activation loop peptide); conditions: 0.1 nM IRAK4
# T1 sequence (Q9NWZ3 1-460): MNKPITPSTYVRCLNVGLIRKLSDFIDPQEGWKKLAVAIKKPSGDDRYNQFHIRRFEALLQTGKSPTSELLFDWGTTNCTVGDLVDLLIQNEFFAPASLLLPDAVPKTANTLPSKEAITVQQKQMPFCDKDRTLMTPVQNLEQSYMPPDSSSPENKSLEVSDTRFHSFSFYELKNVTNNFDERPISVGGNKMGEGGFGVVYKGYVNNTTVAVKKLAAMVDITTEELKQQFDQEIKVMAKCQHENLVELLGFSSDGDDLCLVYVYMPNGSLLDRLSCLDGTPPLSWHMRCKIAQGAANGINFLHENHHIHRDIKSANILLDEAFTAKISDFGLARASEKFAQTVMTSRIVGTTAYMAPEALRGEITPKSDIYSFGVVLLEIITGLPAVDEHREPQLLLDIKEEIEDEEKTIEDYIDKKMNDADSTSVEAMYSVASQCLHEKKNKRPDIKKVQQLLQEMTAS
# Method: Compounds of the invention were assessed for their ability to inhibit IRAK4 activity. The inhibitory properties of the compounds of the invention described herein can be evidenced by testing in any one of the following assays.
# The 2-hour 10 μM ATP Biochemical Assay employs a MesoScale Detection (MSD) format. The kinase reaction is based on the IRAK4 phosphorylation of a biotin labeled peptide (IRAK1 activation loop sequence 360-389).
# The kinase reaction in 30 μl is carried out in wells of a 384 well polypropylene assay plate, with 0.1 nM IRAK4, 1.6 μM of biotinylated peptide substrate and 10 μM ATP in 50 mM Hepes, pH 7.5, 60 mM NaCl, 5 mM MgCl2, 0.25 mM MnCl2, 2 mM DTT, 0.01% BSA, and 1% DMSO (from compound DMSO stocks), for 2 hour at room temperature. The activity is quenched with 11 μl of 70 mM EDTA, pH 8.
# To detect the phosphorylated biotinylated peptide substrate, 30 μl of the quenched reaction mixture is added to equivalent wells of a 384 well streptavidin coated MesoScale plate (Meso Scale Discovery #L21SA-1). After a 1 hour incubation of the plate for 1 hour at room temperature with gentle mixing, the plate wells are washed 3 times with 50 mM Tris, pH 7.5, 150 mM NaCl, 0.02% Tween-20.
# A 25 μl volume of 1:500 anti-P-Threonine Rabbit polyclonal Antibody plus 1:500 Goat-anti-Rabbit Sulfo Tag Antibody (Meso Scale Discovery R32AB-1) in 50 mM Tris, pH 7.5, 150 mM NaCl, 0.02% Tween-20 plus 2% BSA is then added to each well. After a 1-hour incubation of the plate for 1 hour at room temperature with gentle mixing, the plate wells are washed, 3 times with 50 mM Tris, pH 7.5, 150 mM NaCl, 0.02% Tween-20. A 40 μl volume of 2× MSD Read Buffer (Meso Scale Discovery R92TC-1) is added to each well, and the plate is read immediately in an MSD Plate Reader (Meso Scale Discovery).
# IRAK4 [2] = molecular target: T1, IRAK4; assay: biochemical; conditions: for IC50: IRAK4 Biochemical Assay (1 mM ATP, 2 h) IC50 (μM), 1 mM ATP, 2 h, 100 pM IRAK4
SMILES,pIC50 (IRAK4 [1]),pIC50 (IRAK4 [2]),also measured
COc1cc2nc(C3CCOCC3)cn2cc1C(=O)Nc1cccc(OC)c1C [Example 160],7.15,,
COc1cccc(NC(=O)c2cn3cc(C4CCOC4)nc3cc2OC)n1 (centres unmarked) [Example 23],7.60,,
COc1cccc(NC(=O)c2cn3cc(C(C)(C)CC#N)nc3cc2OC)n1 [Example 13],7.77,,
COc1cc2nc(C3CCOCC3)cn2cc1C(=O)Nc1cccnc1C1CC1 [Example 148],7.06,,
COc1cc2nc(C3CCOCC3)cn2cc1C(=O)Nc1cc(F)ccc1OC(C)C [Example 106],7.10,,
COc1cc2nc(C3CCOCC3)cn2cc1C(=O)NC1CC(OC)c2ccccc21 (centres unmarked) [Example 136],6.03,,
COc1cc(C(=O)Nc2cccc(C(F)(F)F)n2)cn2cc(CC3CCOC3)nc12 (centres unmarked) [Example 72],8.10,,
COc1cc2nc(C3CCOCC3)cn2cc1C(=O)Nc1cc(F)cc(F)c1 [Example 152],7.64,,
COc1cc2nc(C3CCOCC3)cn2cc1C(=O)Nc1ccccc1CC(C)C [Example 140],6.09,,
COc1cc2nc(C3CC34CCOC4)cn2cc1C(=O)Nc1cccc(C(F)(F)F)n1 (centres unmarked) [Example 39],7.62,,
COc1cc2nc(C3CCOCC3)cn2cc1C(=O)Nc1cccc2c1CCOC2 [Example 180],7.72,,
COc1cc2nc(C3CCOCC3)cn2cc1C(=O)Nc1cc(F)c(F)c(F)c1 [Example 137],6.88,,
COc1cc2nc(C3CCOCC3)cn2cc1C(=O)Nc1cc(C)cc(C)c1OC [Example 166],6.51,,
COc1cc2nc(C3CCOCC3)cn2cc1C(=O)Nc1cccc(C2CC2)c1 [Example 163],6.16,,
COc1cccc(NC(=O)c2cn3cc(C45CC(C#N)(C4)C5)nc3cc2OC)n1 [Example 19],8.22,,
COc1cc2nc(C3CCOCC3)cn2cc1C(=O)Nc1cc(F)cc(F)c1F [Example 120],7.74,,
"COc1nscc1NC(=O)c1cn2cc(C34CCC(C)(C3)OC4)nc2cc1OC(C)C (centres unmarked) [Example 513, 7-Isopropoxy-N-(3-methoxyisothiazol-4-yl)-2-(1-methyl-2-oxabicyclo[2.2.1]heptan-4-yl)imidazo[1,2-a]pyridine-6-carboxamide]",,9.52,
"CC(C)Oc1cc2nc(C34COC(C)(C3)C4)c(Cl)n2cc1C(=O)Nc1cccc(C(F)F)n1 [Example 229, 3-Chloro-N-(6-(difluoromethyl)pyridin-2-yl)-7-isopropoxy-2-(1-methyl-2-oxabicyclo[2.1.1]hexan-4-yl)imidazo[1,2-a]pyridine-6-carboxamide]",,7.41,
"CC(C)Oc1nc2nc(C34COC(C)(C3)C4)cn2cc1C(=O)Nc1cccc(-c2cnoc2)n1 [Example 640, 7-Isopropoxy-N-(6-(isoxazol-4-yl)pyridin-2-yl)-2-(1-methyl-2-oxabicyclo[2.1.1]hexan-4-yl)imidazo[1,2-a]pyrimidine-6-carboxamide]",,9.15,

SMILES,pIC50 (IRAK4 [1]),pIC50 (IRAK4 [2]),also measured
"CCOc1nc(C(=O)Nc2cc(F)cnc2OC)cn2cc(C3CCCOC3)nc12 (centres unmarked) [Example 271, 8-Ethoxy-N-(5-fluoro-2-methoxypyridin-3-yl)-2-(tetrahydro-2H-pyran-3-yl)imidazo[1,2-a]pyrazine-6-carboxamide]",,8.14,
"CC(C)Oc1cc2nc(C34CCC(C)(C3)OC4)cn2cc1C(=O)Nc1cc(F)n(C)n1 (centres unmarked) [Example 284, N-(5-fluoro-1-methyl-1H-pyrazol-3-yl)-7-isopropoxy-2-(1-methyl-2-oxabicyclo[2.2.1]heptan-4-yl)imidazo[1,2-a]pyridine-6-carboxamide trifluoroacetate]",,,IC50 (IRAK4 [2]): 0.0056 µM
COc1cc2nc(C34COC(CF)(C3)C4)cn2cc1C(=O)Nc1ccccn1 [Example 5],,,IC50 (IRAK4 [2]): 0.0721 µM
"CC(C)Oc1nc2nc(C34COC(CF)(C3)C4)cn2cc1C(=O)Nc1cnn2cccnc12 [Example 563, 2-(1-(Fluoromethyl)-2-oxabicyclo[2.1.1]hexan-4-yl)-7-isopropoxy-N-(pyrazolo[1,5-a]pyrimidin-3-yl)imidazo[1,2-a]pyrimidine-6-carboxamide]",,9.30,
"CC12CC(c3cn4cc(C(=O)Nc5cccc(C(F)F)n5)c(OC(F)F)cc4n3)(CO1)C2 [Example 333, 7-(Difluoromethoxy)-N-(6-(difluoromethyl)pyridin-2-yl)-2-(1-methyl-2-oxabicyclo[2.1.1]hexan-4-yl)imidazo[1,2-a]pyridine-6-carboxamide trifluoroacetate]",,,IC50 (IRAK4 [2]): 0.0052 µM
COc1nc(C(=O)Nc2cccc(C(F)(F)F)n2)cn2cc(C3CCOCC3)nc12 [Example 76],,,IC50 (IRAK4 [2]): 0.0095 µM
"CCOc1nc(C(=O)Nc2cccc(C)c2F)cn2cc(C34COC(C)(C3)C4)nc12 [Example 496, 8-Ethoxy-N-(2-fluoro-3-methylphenyl)-2-(1-methyl-2-oxabicyclo[2.1.1]hexan-4-yl)imidazo[1,2-a]pyrazine-6-carboxamide]",,8.33,
"CC(C)Oc1cc2nc(C34COC(C)(C3)C4)cn2cc1C(=O)Nc1ccno1 [Example 317, 7-Isopropoxy-N-(isoxazol-5-yl)-2-(1-methyl-2-oxabicyclo[2.1.1]hexan-4-yl)imidazo[1,2-a]pyridine-6-carboxamide trifluoroacetate]",,,IC50 (IRAK4 [2]): 0.022 µM
COc1cccc(NC(=O)c2cn3cc(C(C)(F)F)nc3cc2OC(C)C)n1 [Example 101],,7.76,
COc1cc2nc(C3CC34CCCCO4)cn2cc1C(=O)Nc1ccccn1 (centres unmarked) [Example 6],,6.82,
Cc1cnc2c(NC(=O)c3cn4cc(C56CCC(C)(C5)OC6)nc4cc3OC3CC3)cnn2c1 (centres unmarked) [Example 555],,8.80,
CCc1cccc(NC(=O)c2cn3cc(C4CC5(CCOC5)C4)nc3cc2OC)n1 (centres unmarked) [Example 62],,,IC50 (IRAK4 [2]): 0.0038 µM
COc1ncccc1NC(=O)c1cn2cc(C3CCOCC3)nc2c(OC)n1 [Example 208],,7.68,
"CC(C)Oc1cc2nc([C@]34CC[C@](C)(C3)OC4)cn2cc1C(=O)Nc1cnn2cccnc12 (single isomer, unassigned) [Example 614]",,9.70,
"CC12CC(c3cn4cc(C(=O)Nc5cccc6ccnn56)nc(OC5CCC5)c4n3)(CO1)C2 [Example 348, 8-Cyclobutoxy-2-(1-methyl-2-oxabicyclo[2.1.1]hexan-4-yl)-N-(pyrazolo[1,5-a]pyridin-7-yl)imidazo[1,2-a]pyrazine-6-carboxamide]",,8.09,
"CC(C)Oc1nc(C(=O)Nc2ccnc3ccnn23)cn2cc(C34COC(C)(C3)C4)nc12 [Example 400, 8-Isopropoxy-2-(1-methyl-2-oxabicyclo[2.1.1]hexan-4-yl)-N-(pyrazolo[1,5-a]pyrimidin-7-yl)imidazo[1,2-a]pyrazine-6-carboxamide]",,7.87,
"Cn1ccc(NC(=O)c2cn3cc(C45COC(C)(C4)C5)nc3c(OC3CCC3)n2)n1 [Example 346, 8-Cyclobutoxy-N-(1-methyl-1H-pyrazol-3-yl)-2-(1-methyl-2-oxabicyclo[2.1.1]hexan-4-yl)imidazo[1,2-a]pyrazine-6-carboxamide]",,8.07,
"CCOc1nc(C(=O)Nc2cccc(F)c2Cl)cn2cc(C34COC(C)(C3)C4)nc12 [Example 485, N-(2-chloro-3-fluorophenyl)-8-ethoxy-2-(1-methyl-2-oxabicyclo[2.1.1]hexan-4-yl)imidazo[1,2-a]pyrazine-6-carboxamide]",,8.05,
"COc1cccc(NC(=O)c2cn3cc(C45CCC(C)(C4)OC5)nc3cc2OC2CCC2)n1 (centres unmarked) [Example 541, 7-Cyclobutoxy-N-(6-methoxypyridin-2-yl)-2-(1-methyl-2-oxabicyclo[2.2.1]heptan-4-yl)imidazo[1,2-a]pyridine-6-carboxamide]",,9.70,
